Data on 2 compounds can be found in ChEMBL document CHEMBL5532651, “HDAC specificity and kinase off-targeting by purine-benzohydroxamate anti-hematological tumor agents” (Eur J Med Chem, 2024).

Each structure is given as a SMILES string. Activity calls are given as the source filed them. The rule behind the calls is not given here. A value given as a limit tells only on which side of the number the result lay.

The nature of data set [1]: Selectivity index, ratio of IC50 for human HCT-116 cells to IC50 for human NAMALVA cells. Format: functional.
Data set [2] can be described thus: Selectivity index, ratio of IC50 for human MCF7 cells to IC50 for human NAMALVA cells. It is filed as functional.
Data set [3] in a line: Selectivity index, ratio of IC50 for human leukocytes cells to IC50 for human Jurkat cells. Format: functional.
A short description of data set [4]: Selectivity index, ratio of IC50 for human HS5 cells to IC50 for human NAMALVA cells. Format: functional.
Data set [5] deals with Jurkat. The data set is described as follows: Potency index, ratio of Vorinostat IC50 to test compound IC50 for human Jurkat cells assessed as cell growth inhibition incubated for 24 to 72 hrs by MTT assay. The note with it: time 24-72 hrs. It is filed as functional. On the technique in general: Tetrazolium dyes change colour on reduction, which living cells bring about.
In data set [6] the test system is NAMALVA. The experiment in a line: Potency index, ratio of Vorinostat IC50 to test compound IC50 for human NAMALVA cells assessed as cell growth inhibition incubated for 24 to 72 hrs by MTT assay. It is filed as functional. The note with it: time 24-72 hrs.
Data set [7] deals with T1, Histone deacetylase 1 (Homo sapiens, UniProt Q13547). The experiment in a line: Inhibition of full-length recombinant human HDAC1 expressed in baculovirus infected Sf9 cells using RHKK(Ac)AMC as substrate preincubated for 5 to 10 mins followed by substrate addition measured after 2 hrs by fluorescence based assay.
Data set [8] relates to U-937. The experiment in a line: Cytotoxicity against human U-937 cells assessed as cell growth inhibition at 1.6 to 3.6 uM by MTT assay. It is filed as functional, cell-based. The note with it: dose 1.6-3.6 µM, time lower 24.0 hrs, time upper […], TDE = time-dependent effect.
The test system of data set [9] is U-937. The experiment in a line: Cytotoxicity against human U-937 cells assessed as cell growth inhibition incubated for 24 to 72 hrs by MTT assay. Format: functional, cell-based. The following applies: time lower 24.0 hrs, time upper […].
Data set [10] addresses T1, Histone deacetylase 1. The data set is described as follows: Inhibition of HDAC1 in human NAMALVA cells assessed as increase in acetyl-histone H3 level at IC50 incubated for 48 hrs by Western blot analysis. It is filed as cell-based. A general note: A western blot detects proteins with antibodies after separation by electrophoresis.
In data set [11] the target is T1, Histone deacetylase 1. The experiment in a line: Inhibition of HDAC1 in human Jurkat cells assessed as increase in acetyl-alpha-tubulin level at IC50 incubated for 48 hrs by Western blot analysis. Format: cell-based.
For data set [12], the target named is T2, Protein deacetylase HDAC6 (Homo sapiens) (UniProt Q9UBN7).
T2 sequence (whole entry): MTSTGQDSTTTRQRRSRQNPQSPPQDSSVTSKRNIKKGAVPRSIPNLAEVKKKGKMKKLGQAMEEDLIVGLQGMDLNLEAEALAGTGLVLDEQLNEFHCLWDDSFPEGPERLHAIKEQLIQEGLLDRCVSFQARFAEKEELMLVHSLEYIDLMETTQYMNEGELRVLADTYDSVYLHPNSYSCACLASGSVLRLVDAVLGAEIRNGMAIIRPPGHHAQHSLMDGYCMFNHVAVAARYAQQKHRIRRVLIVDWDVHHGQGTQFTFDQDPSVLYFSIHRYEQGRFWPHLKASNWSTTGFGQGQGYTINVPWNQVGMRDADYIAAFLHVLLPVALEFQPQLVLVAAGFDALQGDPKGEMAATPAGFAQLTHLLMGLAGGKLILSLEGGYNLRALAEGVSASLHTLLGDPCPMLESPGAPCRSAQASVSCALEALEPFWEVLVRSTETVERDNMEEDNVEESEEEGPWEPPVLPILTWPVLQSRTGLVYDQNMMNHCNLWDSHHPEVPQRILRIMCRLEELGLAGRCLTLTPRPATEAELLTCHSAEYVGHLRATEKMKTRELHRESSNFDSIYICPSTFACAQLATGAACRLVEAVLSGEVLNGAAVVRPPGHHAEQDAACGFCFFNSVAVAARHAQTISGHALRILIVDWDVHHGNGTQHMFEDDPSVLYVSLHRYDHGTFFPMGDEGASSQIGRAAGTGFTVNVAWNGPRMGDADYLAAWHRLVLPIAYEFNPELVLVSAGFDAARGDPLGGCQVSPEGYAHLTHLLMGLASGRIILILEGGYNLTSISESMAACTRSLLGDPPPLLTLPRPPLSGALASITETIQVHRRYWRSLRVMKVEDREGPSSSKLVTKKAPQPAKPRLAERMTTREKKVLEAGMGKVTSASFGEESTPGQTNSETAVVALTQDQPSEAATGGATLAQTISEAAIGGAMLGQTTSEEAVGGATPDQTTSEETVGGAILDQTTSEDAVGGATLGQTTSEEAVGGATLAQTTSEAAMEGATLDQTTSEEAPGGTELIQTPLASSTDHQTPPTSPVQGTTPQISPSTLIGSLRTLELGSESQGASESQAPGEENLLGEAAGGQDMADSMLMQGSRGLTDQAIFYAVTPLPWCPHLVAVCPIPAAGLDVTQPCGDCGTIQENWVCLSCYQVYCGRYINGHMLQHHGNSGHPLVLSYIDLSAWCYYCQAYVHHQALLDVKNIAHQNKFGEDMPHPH
The experiment in a line: Inhibition of HDAC6 in human Jurkat cells assessed as increase in acetyl-alpha-tubulin level at IC50 incubated for 48 hrs by Western blot analysis. It is filed as cell-based.

The target of data set [13] is Tyrosine-protein kinase JAK3 (Homo sapiens) (UniProt P52333). The data set is described as follows: Inhibition of JAK3 (unknown origin) at 100 uM preincubated for 20 mins followed by 33P-ATP addition measured after 2 hrs by HotSpot kinase assay relative to control. The following applies: time 140.0 min.
In data set [14] the target is T3, CYP1A2 (Homo sapiens, UniProt P05177).
T3 sequence (P05177 whole entry): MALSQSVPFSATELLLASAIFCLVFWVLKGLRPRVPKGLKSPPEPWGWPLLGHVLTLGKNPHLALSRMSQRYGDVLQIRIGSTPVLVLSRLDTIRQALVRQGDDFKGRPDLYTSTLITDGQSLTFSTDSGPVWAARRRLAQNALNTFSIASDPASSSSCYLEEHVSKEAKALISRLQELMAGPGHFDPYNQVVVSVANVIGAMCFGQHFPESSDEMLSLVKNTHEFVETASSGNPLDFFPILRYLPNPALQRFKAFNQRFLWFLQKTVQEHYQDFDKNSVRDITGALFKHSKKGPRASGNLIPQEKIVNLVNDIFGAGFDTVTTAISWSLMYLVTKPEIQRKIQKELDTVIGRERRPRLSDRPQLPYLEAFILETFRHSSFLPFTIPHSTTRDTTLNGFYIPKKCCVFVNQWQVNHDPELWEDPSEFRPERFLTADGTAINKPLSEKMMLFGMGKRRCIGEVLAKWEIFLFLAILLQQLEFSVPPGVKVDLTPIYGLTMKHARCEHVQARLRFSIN
The data set is described as follows: Inhibition of CYP1A2 in liver microsomes (unknown origin) at 10 uM incubated for 10 mins relative to control. Format: ADME, Microsome. Background: Liver microsomes are a subcellular fraction often used to study metabolism.

For data set [15], the target named is CYP2D6 (Homo sapiens, UniProt P10635). The experiment in a line: Inhibition of CYP2D6 in liver microsomes (unknown origin) at 10 uM incubated for 10 mins relative to control. It is filed as ADME, Microsome.
Data set [16] in a line: Stability in mouse liver microsome assessed as half life at 1 uM measured for 60 mins by LC-MS/MS analysis. It is filed as ADME. The following applies: liver microsomes.
Data set [17] in a line: Stability in mouse liver microsome assessed as intrinsic clearance at 1 uM measured for 60 mins by LC-MS/MS analysis. It is filed as ADME. The note with it: liver microsomes, read-out: CLH.
Data set [18] relates to Jurkat. The experiment in a line: cells. The following applies: Homo sapiens.
Data set [19] has as its system Jurkat. The data set is described as follows: Induction of apoptosis in human Jurkat cells at IC50 measured after 48 hrs by flow cytometry. It is filed as functional, cell-based.

T1 sequence (Q13547 whole entry): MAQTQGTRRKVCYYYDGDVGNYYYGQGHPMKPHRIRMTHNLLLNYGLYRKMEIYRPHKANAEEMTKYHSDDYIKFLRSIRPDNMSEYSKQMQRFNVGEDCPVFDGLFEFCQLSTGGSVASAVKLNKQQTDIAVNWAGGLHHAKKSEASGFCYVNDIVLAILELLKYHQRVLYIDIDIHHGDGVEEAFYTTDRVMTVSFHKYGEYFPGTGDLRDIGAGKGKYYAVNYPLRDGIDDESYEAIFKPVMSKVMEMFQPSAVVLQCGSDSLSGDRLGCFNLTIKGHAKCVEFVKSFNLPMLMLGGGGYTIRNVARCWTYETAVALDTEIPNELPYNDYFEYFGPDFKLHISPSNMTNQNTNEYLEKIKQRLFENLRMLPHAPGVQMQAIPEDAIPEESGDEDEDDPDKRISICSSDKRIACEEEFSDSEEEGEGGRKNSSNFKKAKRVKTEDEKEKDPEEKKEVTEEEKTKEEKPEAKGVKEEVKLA
Sequence of CYP2D6 (P10635 whole entry): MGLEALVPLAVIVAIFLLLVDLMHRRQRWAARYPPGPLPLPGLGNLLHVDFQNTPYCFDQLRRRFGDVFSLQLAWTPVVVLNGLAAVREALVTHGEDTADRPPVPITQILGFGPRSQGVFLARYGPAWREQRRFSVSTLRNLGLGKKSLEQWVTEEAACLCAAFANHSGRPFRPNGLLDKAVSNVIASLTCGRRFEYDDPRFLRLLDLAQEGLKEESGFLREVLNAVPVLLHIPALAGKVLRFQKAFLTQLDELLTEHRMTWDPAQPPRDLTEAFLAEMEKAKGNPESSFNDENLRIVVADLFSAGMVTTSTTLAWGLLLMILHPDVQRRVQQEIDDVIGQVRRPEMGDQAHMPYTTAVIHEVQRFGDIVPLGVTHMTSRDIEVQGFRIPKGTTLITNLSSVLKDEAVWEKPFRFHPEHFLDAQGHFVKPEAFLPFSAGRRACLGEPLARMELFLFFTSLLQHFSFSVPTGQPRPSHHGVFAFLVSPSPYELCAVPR
Sequence of Tyrosine-protein kinase JAK3 (Homo sapiens) (P52333 whole entry): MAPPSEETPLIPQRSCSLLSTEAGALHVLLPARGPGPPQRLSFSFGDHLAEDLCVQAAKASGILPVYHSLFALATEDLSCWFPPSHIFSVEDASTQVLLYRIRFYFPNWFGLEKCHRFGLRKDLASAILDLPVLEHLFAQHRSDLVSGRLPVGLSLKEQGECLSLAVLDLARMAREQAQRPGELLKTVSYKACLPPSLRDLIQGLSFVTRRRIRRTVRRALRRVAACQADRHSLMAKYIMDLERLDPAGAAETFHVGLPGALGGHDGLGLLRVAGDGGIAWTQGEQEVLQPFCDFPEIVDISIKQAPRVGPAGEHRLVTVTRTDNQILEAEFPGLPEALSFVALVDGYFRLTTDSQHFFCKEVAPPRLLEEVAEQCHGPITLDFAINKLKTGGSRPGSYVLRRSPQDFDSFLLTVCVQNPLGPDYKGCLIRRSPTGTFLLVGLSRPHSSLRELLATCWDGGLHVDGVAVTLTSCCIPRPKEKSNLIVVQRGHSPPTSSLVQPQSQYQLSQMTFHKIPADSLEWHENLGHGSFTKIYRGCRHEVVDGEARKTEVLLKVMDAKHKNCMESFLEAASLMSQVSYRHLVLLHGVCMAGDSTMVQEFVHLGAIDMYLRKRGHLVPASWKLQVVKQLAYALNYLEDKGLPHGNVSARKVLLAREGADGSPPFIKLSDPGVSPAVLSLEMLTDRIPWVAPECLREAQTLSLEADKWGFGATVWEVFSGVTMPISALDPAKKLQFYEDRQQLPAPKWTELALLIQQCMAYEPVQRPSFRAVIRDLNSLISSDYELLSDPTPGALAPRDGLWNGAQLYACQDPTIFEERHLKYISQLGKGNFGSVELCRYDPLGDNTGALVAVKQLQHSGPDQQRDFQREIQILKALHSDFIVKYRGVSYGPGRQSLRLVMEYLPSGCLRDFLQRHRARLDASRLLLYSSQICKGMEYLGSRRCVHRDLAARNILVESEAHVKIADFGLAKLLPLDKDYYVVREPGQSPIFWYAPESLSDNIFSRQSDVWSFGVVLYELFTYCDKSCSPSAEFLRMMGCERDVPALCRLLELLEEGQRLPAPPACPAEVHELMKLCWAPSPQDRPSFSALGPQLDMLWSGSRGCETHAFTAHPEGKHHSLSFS

Regarding `O=C(NO)c1ccc(Cn2cnc3c(Nc4ccc(F)c(Cl)c4)ncnc32)cc1`, the “Ratio IC50” value in data set [1] was 83; in data set [2] it was 83; in [3], “>=100”; in data set [4], “>=100”; in [5], “<=10”; in data set [6], “<=10”. Further, the IC50 is 189 nM in data set [7] and 20 nM in data set [18]. Further, the inhibition entry in data set [8] is “Tde”; in data set [9], “Dose-Dependent Effect”; in data set [13], 94.5%. Moreover, the inhibition entry in [10], in data set [11] and in data set [12] was “Active” each time. Besides, the inhibition at 10 min, 10 µM came out at 46% in [14] and 10% in data set [15]. The half-life at 1 µM in data set [16] was determined as 35 min. In [17], the microsomal CLint at 1 µM is 20 µL/min/mg.
Turning to `COc1ccc(Nc2ncnc3c2ncn3Cc2ccc(C(=O)NO)cc2)cc1`, the “Ratio IC50” value in data set [1] is on record as 83; in [2], 83; in [3], “>=100”; in data set [4], “>=100”; in [5], “<=10”; in [6] it was “<=10”. Further, the IC50 was found to be 118 nM in data set [7] and 50 nM in [18]. Further, the inhibition result in data set [9] is “Dose-Dependent Effect”. Also, the outcome in data set [19] was Active. Further, the inhibition result in data set [10], in data set [11] and in [12] was “Active” each time. The values for the inhibition at 10 min, 10 µM in data set [14] and in data set [15] were 50% and 10%, respectively. Besides, the half-life at 1 µM in [16] stood at 50 min. Further, the microsomal CLint at 1 µM in data set [17] amounted to 14 µL/min/mg.

Broadly, the IC50 is the concentration at which inhibition is half-maximal. As a reminder, the inhibition is the drop in the measured response relative to a control, in per cent. By half-life is commonly meant how long it takes for the measured level to halve.
